The nature of this data set: from Suikov, S.; Kal'nits'kii, M.; Lutsik, O.; Plyushchakova, L.; Bondarenko, A.; Bogza, S.; Popov, A. (2007). Derivatives of 1,2,4-triazolo[4,3-b]pyridazin-6-ylhydrazine as a new training set for ….
`CC(=NN=c1ccc2nncn2[nH]1)c1ccc(O)cc1`: the log partition coefficient (logP) was found to be 1.45.
The figure for `COc1cc(C=NN=c2ccc3nncn3[nH]2)cc(OC)c1OC` is 1.53.
`CC(=NN=c1ccc2nncn2[nH]1)c1cccc(O)c1` came in with a logP of 1.46.
As for `CC(=NN=c1ccc2nncn2[nH]1)c1ccccc1O`, the logP was 1.89.
For the molecule `CC(=NN=c1ccc2nncn2[nH]1)c1ccc(C)cc1`, the logP is 2.2.
The result for `COc1cccc(C(C)=NN=c2ccc3nncn3[nH]2)c1` reads 1.97.
The figure for `CC/C(=N/Nc1ccc2nncn2n1)c1ccccc1` is 2.15; for `CC(=NN=c1ccc2nncn2[nH]1)c1ccc(F)cc1` it is 2.02.
`CC(=NN=c1ccc2nncn2[nH]1)c1ccncc1` returned a lipophilicity (logP) of 0.93.
The result for `CC(=NN=c1ccc2nncn2[nH]1)c1ccccn1` reads 1.15; that for `COc1ccccc1C(C)=NN=c1ccc2nncn2[nH]1`, 1.94.

Values taken from the SangsterLogP compilation.
